The record followed here is PMC3914206.

The target of assay [1] is T1, panel of 442 kinases (Homo sapiens, UniProt P36888, D835Y).
T1 construct: purchased KINOMEscan
T1 sequence (P36888 27-993 D835Y): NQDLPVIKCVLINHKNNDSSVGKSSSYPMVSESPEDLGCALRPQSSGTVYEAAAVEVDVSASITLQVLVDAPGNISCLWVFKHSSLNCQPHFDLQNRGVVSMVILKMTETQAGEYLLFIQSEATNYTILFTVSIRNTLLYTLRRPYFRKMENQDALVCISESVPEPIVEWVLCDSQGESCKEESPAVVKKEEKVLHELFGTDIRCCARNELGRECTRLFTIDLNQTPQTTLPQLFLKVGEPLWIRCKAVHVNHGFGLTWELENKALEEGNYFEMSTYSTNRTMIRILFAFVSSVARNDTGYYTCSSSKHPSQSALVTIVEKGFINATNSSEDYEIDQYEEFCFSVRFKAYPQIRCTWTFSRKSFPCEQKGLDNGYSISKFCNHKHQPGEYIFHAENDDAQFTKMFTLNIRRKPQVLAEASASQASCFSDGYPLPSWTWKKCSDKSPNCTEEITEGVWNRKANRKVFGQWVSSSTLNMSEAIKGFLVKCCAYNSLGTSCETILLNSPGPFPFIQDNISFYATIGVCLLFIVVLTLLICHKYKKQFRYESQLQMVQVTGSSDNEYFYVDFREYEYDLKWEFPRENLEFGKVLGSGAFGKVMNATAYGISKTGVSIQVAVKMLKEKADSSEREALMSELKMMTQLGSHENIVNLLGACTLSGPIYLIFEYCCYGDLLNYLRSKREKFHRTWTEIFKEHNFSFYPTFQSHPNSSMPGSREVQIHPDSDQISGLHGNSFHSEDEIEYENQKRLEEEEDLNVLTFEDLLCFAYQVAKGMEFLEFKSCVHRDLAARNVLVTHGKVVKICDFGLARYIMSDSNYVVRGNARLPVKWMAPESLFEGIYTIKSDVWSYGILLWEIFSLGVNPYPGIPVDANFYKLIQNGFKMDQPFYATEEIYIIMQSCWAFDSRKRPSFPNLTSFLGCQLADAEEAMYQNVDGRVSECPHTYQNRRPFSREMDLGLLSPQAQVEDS
The format is binding. Conditions: Compound Concentration 10 µM. From the text:
(§1) We assessed the selectivity of members of this scaffold using the KINOMEscan methodology across a near comprehensive panel of 442 kinases [[18,27]].

The target of assay [2] is T2, panel of 442 kinases (Homo sapiens, UniProt Q9UPE1).
T2 construct: purchased KINOMEscan
The format is binding. The note with it: kinase SRPK3; compound concentration 10 µM.
Excerpt: as §1

Molecules are shown by their SMILES.

T2 sequence (Q9UPE1 whole entry): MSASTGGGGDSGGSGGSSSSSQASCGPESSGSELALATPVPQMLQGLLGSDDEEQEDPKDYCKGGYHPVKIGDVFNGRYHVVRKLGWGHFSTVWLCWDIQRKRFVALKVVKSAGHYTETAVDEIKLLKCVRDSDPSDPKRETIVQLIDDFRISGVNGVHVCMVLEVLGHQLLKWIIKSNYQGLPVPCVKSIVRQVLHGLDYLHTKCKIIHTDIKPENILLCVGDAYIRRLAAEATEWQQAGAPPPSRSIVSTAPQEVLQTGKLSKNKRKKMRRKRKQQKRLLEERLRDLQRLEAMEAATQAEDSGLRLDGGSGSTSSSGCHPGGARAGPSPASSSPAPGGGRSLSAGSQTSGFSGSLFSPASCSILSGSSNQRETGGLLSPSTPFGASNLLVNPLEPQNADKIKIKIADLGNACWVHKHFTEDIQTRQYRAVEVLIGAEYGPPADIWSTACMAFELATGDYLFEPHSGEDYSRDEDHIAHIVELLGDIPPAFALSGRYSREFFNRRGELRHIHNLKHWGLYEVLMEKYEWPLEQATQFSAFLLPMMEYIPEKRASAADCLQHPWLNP

Consider `COc1cc(C(=O)N2CCC(N3CCN(C)CC3)CC2)ccc1Nc1ncc2c(n1)N(C1CCCC1)c1ccccc1C(=O)N2C` [Compound 25, 11-cyclopentyl-2-((2-methoxy-4-(4-(4-methylpiperazin-1-yl)piperidine-1-carbonyl)phenyl)amino)-5-methyl-5H-benzo[e]pyrimido[5,4-b][1,4]diazepin-6(11H)-one], for which the “KINOMEscan: FLT3(D835Y)” value at panel of 442 kinases [1] amounted to 100. In addition, the “% Ctrl, SRPK3” value at panel of 442 kinases [2] is 91 % Ctrl. As for `COc1cc(C(=O)N2CCC(N3CCN(C)CC3)CC2)ccc1Nc1ncc2c(n1)N1CCc3cccc(c31)C(=O)N2C` [Compound 24], at panel of 442 kinases [2], the “% Ctrl, SRPK3” value came out at 91 % Ctrl. Turning to `COc1cc(C(=O)N2CCC(N3CCN(C)CC3)CC2)ccc1Nc1ncc2c(n1)N(C)c1ccccc1C(=O)N2C` [15 (LRRK2-IN-1)], the “KINOMEscan: FLT3(D835Y)” value at panel of 442 kinases [1] amounted to 100. Besides, the “% Ctrl, SRPK3” value at panel of 442 kinases [2] was determined as 72 % Ctrl.

As to `CCOc1cc(C(=O)N2CCC(N3CCN(C)CC3)CC2)ccc1Nc1ncc2c(n1)N(C1CCCC1)c1ccccc1C(=O)N2C` [Compound 26], the “KINOMEscan: FLT3(D835Y)” value at panel of 442 kinases [1] turned out to be 100. Besides, the “% Ctrl, SRPK3” value on panel of 442 kinases [2] worked out at 100 % Ctrl.
